Results: patent publication US7772241B2, “Variolin derivatives and their use as antitumor agents” (Pharma Mar S.A., priority 2001, dated 2010)

Assays:
A-549 = assay: Inhibition of cells growth by colorimetric (SRB) assay, A-549
Outline: (§1)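 Read-out is sulforhodamine B protein stain (OD 490 nm) after cold TCA fixation, following 48 h continuous exposure to samples spanning 10 to 10^−8 μg/ml.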

SK-MEL-28 = assay: Inhibition of cells growth by colorimetric (SRB) assay, SK-MEL-28
Outline: as §1

HT-29 = assay: Inhibition of cells growth by colorimetric (SRB) assay, HT-29
Outline: as §1

LoVo = assay: Inhibition of cells growth by colorimetric (SRB) assay, LoVo
Outline: as §1

LoVo-Dox = assay: Inhibition of cells growth by colorimetric (SRB) assay, LoVo-Dox
Outline: as §1

DU-145 = assay: Inhibition of cells growth by colorimetric (SRB) assay, DU-145
Outline: as §1

SK-BR-3 = assay: Inhibition of cells growth by colorimetric (SRB) assay, SK-BR-3
Outline: as §1

IGROV-1 = assay: Inhibition of cells growth by colorimetric (SRB) assay, IGROV-1
Outline: as §1

IGROV-ET = assay: Inhibition of cells growth by colorimetric (SRB) assay, IGROV-ET
Outline: as §1

HeLa = assay: Inhibition of cells growth by colorimetric (SRB) assay, HeLa
Description: (§2) The finality of these assays is to interrupt the growth of a “in vitro” tumor cell culture by means a continued exhibition of the cells to the sample to be testing.
(§3) This form of the assay employs 96 well cell culture microplates of 9 mm diameter (Faircloth, 1988; Mosmann, 1983). Most of the cell lines are obtained from American Type Culture Collection (ATCC) derived from different human cancer types.
(§4) Cells are maintained in RPMI 1640 10% FBS, supplemented with 0.1 g/l penicillin and 0.1 g/l streptomycin sulphate and then incubated at 37° C., 5% CO2 and 98% humidity. For the experiments, cells were harvested from subconfluent cultures using trypsin and resuspended in fresh medium before plating.
(§5) Cells are seeded in 96 well microtiter plates, at 5×10^3 cells per well in aliquots of 195 μl medium, and they are allowed to attach to the plate surface by growing in drug free medium for 18 hours. Afterward, samples are added in aliquots of 5 μl in a ranging from 10 to 10^−8 μg/ml, dissolved in DMSO/EtOH/PBS (0.5:0.5:99). After 48 hours exposure, the antitumor effect are measured by the SRB methodology: cells are fixed by adding 50 μl of cold 50% (wt/vol) trichloroacetic acid (TCA) and incubating for 60 minutes at 4° C. Plates are washed with deionized water and dried. One hundred μl of SRB solution (0.4% wt/vol in 1% acetic acid) is added to each microtiter well and incubated for 10 minutes at room temperature. Unbound SRB is removed by washing with 1% acetic acid. Plates are air dried and bound stain is solubilized with Tris buffer. Optical densities are read on a automated spectrophotometric plate reader at a single wavelength of 490 nm.
(§6) The values for mean +/−SD of data from triplicate wells are calculated. Some parameters for cellular responses can be calculated: GI=growth inhibition, TGI=total growth inhibition (cytostatic effect) and LC=cell killing (cytotoxic effect).

HeLa-APL = assay: Inhibition of cells growth by colorimetric (SRB) assay, HeLa-APL
Description: as §2, §3, §4, §5, §6

PANC-1 = assay: Inhibition of cells growth by colorimetric (SRB) assay, PANC-1
Outline: as §1

`CSc1nccc(-c2c3c(Cl)ccnc3n3c(N)nccc23)n1.Cl` [Compound 108] was tested, and the GI50 (A-549; Homo sapiens, A549, 48 h, read-out: A-549 GI50, SRB assay, 48 hours exposure) was 2.02 µM, the CC50 (A-549; Homo sapiens, A549, 48 h, read-out: A-549 LC50, SRB assay, 48 hours exposure) was 26.4 µM and the “A-549 TGI” value (A-549; SRB assay, 48 hours exposure) was 2.16E−05. For the same compound, the GI50 (SK-MEL-28; Homo sapiens, SK-MEL-28, 48 h, read-out: MEL-28 GI50, SRB assay, 48 hours exposure) was 0.925 µM, the CC50 (SK-MEL-28; Homo sapiens, SK-MEL-28, 48 h, read-out: MEL-28 LC50, SRB assay, 48 hours exposure) was 26.4 µM and the “MEL-28 TGI” value (SK-MEL-28; SRB assay, 48 hours exposure) was 2.64E−05. For the same compound, the GI50 (HT-29; Homo sapiens, HT-29, 48 h, read-out: HT-29 GI50, SRB assay, 48 hours exposure) was 0.701 µM, the CC50 (HT-29; Homo sapiens, HT-29, 48 h, read-out: HT-29 LC50, SRB assay, 48 hours exposure) was 26.4 µM and the “HT-29 TGI” value (HT-29; SRB assay, 48 hours exposure) was 2.64E−05. The GI50 (LoVo; Homo sapiens, LoVo, 48 h, read-out: LOVO GI50, SRB assay, 48 hours exposure) was 0.208 µM, the CC50 (LoVo; Homo sapiens, LoVo, 48 h, read-out: LOVO LC50, SRB assay, 48 hours exposure) was 4.85 µM and the “LOVO TGI” value (LoVo; SRB assay, 48 hours exposure) was 7.57E−07. The GI50 (LoVo-Dox; Homo sapiens, 48 h, read-out: LOVO-DOX GI50, SRB assay, 48 hours exposure) was 0.68 µM, the CC50 (LoVo-Dox; Homo sapiens, 48 h, read-out: LOVO-DOX LC50, SRB assay, 48 hours exposure) was 26.4 µM and the “LOVO-DOX TGI” value (LoVo-Dox; SRB assay, 48 hours exposure) was 1.61E−06. For the same compound, the GI50 (DU-145; Homo sapiens, DU-145, 48 h, read-out: DU-145 GI50, SRB assay, 48 hours exposure) was 1.5 µM, the CC50 (DU-145; Homo sapiens, DU-145, 48 h, read-out: DU-145 LC50, SRB assay, 48 hours exposure) was 26.4 µM and the “DU-145 TGI” value (DU-145; SRB assay, 48 hours exposure) was 2.64E−05. The GI50 (SK-BR-3; Homo sapiens, SK-BR-3, 48 h, read-out: SK-BR-3 GI50, SRB assay, 48 hours exposure) was 5.62 µM, the CC50 (SK-BR-3; Homo sapiens, SK-BR-3, 48 h, read-out: SK-BR-3 LC50, SRB assay, 48 hours exposure) was 26.4 µM and the “SK-BR-3 TGI” value (SK-BR-3; SRB assay, 48 hours exposure) was 1.60E−05. The GI50 (IGROV-1; Homo sapiens, IGROV-1, 48 h, read-out: IGROV GI50, SRB assay, 48 hours exposure) was 2.33 µM, the CC50 (IGROV-1; Homo sapiens, IGROV-1, 48 h, read-out: IGROV LC50, SRB assay, 48 hours exposure) was 26.4 µM and the “IGROV TGI” value (IGROV-1; SRB assay, 48 hours exposure) was 2.64E−05. For the same compound, the GI50 (IGROV-ET; Homo sapiens, 48 h, read-out: IGROV-ET GI50, SRB assay, 48 hours exposure) was 11.3 µM, the CC50 (IGROV-ET; Homo sapiens, 48 h, read-out: IGROV-ET LC50, SRB assay, 48 hours exposure) was 26.4 µM and the “IGROV-ET TGI” value (IGROV-ET; SRB assay, 48 hours exposure) was 2.64E−05. The GI50 (HeLa; Homo sapiens, HeLa, 48 h, read-out: HELA GI50, SRB assay, 48 hours exposure) was 0.00751 µM, the “HELA TGI” value (HeLa; SRB assay, 48 hours exposure) was 1.15E−07 and the GI50 (HeLa-APL; Homo sapiens, 48 h, read-out: HELA-APL GI50, SRB assay, 48 hours exposure) was 0.00954 µM. The CC50 (HeLa-APL; Homo sapiens, 48 h, read-out: HELA-APL LC50, SRB assay, 48 hours exposure) was 26.4 µM, the “HELA-APL TGI” value (HeLa-APL; SRB assay, 48 hours exposure) was 2.04E−07 and the GI50 (PANC-1; Homo sapiens, PANC-1, 48 h, read-out: PANC-1 GI50, SRB assay, 48 hours exposure) was 3.37 µM. For the same compound, the CC50 (PANC-1; Homo sapiens, PANC-1, 48 h, read-out: PANC-1 LC50, SRB assay, 48 hours exposure) was 26.4 µM and the “PANC-1 TGI” value (PANC-1; SRB assay, 48 hours exposure) was 2.64E−05.
